23 compounds from patent publication US20250368667A1, “USP1 INHIBITOR” (Shanghai Qilu Pharmaceutical Research and Development …, priority 2022, published 2025) can be followed below.

Sequence of recombinant human His6-USP1/His6-UAF1 composite protein (O94782 whole entry): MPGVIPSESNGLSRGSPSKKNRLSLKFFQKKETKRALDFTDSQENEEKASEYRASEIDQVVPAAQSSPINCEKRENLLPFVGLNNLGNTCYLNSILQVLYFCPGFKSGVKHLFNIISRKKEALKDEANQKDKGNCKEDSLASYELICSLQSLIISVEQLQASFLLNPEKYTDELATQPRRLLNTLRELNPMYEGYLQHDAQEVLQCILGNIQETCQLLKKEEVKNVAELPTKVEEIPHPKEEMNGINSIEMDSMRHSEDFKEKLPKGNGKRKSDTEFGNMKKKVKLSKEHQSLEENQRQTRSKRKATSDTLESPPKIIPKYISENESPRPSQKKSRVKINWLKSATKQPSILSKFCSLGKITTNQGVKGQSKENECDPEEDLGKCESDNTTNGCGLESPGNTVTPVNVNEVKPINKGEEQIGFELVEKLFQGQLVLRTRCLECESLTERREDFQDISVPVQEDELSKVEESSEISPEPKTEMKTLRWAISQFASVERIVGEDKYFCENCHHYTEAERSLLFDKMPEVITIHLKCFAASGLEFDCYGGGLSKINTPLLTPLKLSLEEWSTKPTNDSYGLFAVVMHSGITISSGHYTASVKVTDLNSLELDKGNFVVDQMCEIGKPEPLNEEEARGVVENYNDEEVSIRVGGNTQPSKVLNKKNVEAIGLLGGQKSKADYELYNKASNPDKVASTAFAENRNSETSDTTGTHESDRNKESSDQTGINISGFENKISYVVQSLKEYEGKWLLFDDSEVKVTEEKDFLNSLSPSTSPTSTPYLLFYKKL
Sequence of recombinant human His6-USP1/His6-UAF1 composite protein (Q8TAF3 whole entry partner): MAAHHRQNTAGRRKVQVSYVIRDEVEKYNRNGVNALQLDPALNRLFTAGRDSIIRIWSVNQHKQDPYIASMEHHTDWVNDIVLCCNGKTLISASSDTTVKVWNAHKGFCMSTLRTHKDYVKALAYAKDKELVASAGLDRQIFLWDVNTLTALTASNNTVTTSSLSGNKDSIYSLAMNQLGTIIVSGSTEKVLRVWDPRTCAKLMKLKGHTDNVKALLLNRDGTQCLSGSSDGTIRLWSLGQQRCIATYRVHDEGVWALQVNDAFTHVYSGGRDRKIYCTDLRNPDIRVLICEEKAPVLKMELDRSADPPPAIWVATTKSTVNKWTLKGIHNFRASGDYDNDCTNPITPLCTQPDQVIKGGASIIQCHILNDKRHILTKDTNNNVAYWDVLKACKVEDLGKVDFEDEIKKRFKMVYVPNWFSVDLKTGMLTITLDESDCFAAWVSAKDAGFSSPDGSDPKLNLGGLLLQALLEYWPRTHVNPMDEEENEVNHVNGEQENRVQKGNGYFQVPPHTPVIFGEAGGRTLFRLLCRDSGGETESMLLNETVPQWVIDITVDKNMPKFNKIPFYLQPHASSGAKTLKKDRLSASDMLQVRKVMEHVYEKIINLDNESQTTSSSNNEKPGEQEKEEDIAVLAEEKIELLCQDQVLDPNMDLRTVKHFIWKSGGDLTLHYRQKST

The test addresses recombinant human His6-USP1/His6-UAF1 composite protein (Homo sapiens (Human), UniProt O94782). Kind of test: USP1 enzyme activity detection (Ub-Rho fluorescence). It counts as biochemical. The following applies: USP1/UAF1, Ub-Rho substrate 300 nM, 1 hour pre-incubation; read-out: IC50 (enzymatic inhibition of USP1).
Text: USPli compounds were screened by USP1 enzyme activity detection experiment.
1.1 Experimental materials: recombinant human His6-USP1/His6-UAF1 composite protein. (R&D, catalog number E-568-050): Ubiquitin rhodamine 110 (Ub-Rho) (R&D, catalog number U-555-050); Fluorescent 384-well plate (Perkin Elmer, Art. No. 6007279).
1.2 Test sample: Compounds of table 3 in this application, whose structural formulae and preparation methods are shown in the above examples.
Using Equation (I) to fit data in Excel to obtain the inhibition value;
[formula] • wherein, the maximum signal value represents the luminous signal intensity of the positive control hole without adding the compound of the application; the minimum signal value represents the luminous signal intensity of the negative control hole without enzyme; and the target signal value represents the luminous signal intensity of the Test samples; and • fitting the data in XL-Fit with Equation (II) to obtain IC50 value:
[formula] • wherein Y is the inhibition rate, X is the concentration of the compound; Bottom is the lowest inhibition rate; Top is the highest inhibition rate; and HillSlope is the slope.
Turning to `COc1ncnc(C2CC2)c1-c1ncc2c3c(C#N)cccc3n(Cc3ccc(-c4nc(C(F)(F)F)cn4C)cc3)c2n1` [Compound 39], the IC50 amounted to 29.9 nM. `COc1ncnc(C2CC2)c1-c1ncc2c3ccc(P(C)(C)=O)cc3n(Cc3ccc4c(c3)CCCn3cc(C(F)(F)F)nc3-4)c2n1` [Compound 96]: the IC50 is 4.89 nM. For `COc1ccc2c(c1)c1cnc(-c3c(OC)ncnc3C3CC3)nc1n2Cc1ccc(-c2nc(C(F)(F)F)cn2C(C)C)cc1` [Compound 33] the value was 26.1 nM; for `COc1ncnc(C2CC2)c1-c1ncc2c3cccc(F)c3n(Cc3ccc(-c4nc(C(F)(F)F)cn4C)cc3)c2n1` [Compound 27], 9.95 nM. With `COc1ncnc(C2CC2)c1-c1ncc2c3ccc(F)nc3n(Cc3ccc(-c4nc(C(F)(F)F)cn4C)cc3)c2n1` [Compound 73], the concentration for half-maximal inhibition (IC50) turned out to be 4.9 nM. With `COc1ncnc(C2CC2)c1-c1ncc2c3ccc(N4CC(OC)C4)nc3n(Cc3ccc4c(c3)CCCn3cc(C(F)(F)F)nc3-4)c2n1` [Compound 137], the IC50 amounted to 1.54 nM.

As to `COc1ncnc(C2CC2)c1-c1ncc2c3ccc(C#N)cc3n(Cc3ccc4c(c3)COCCn3cc(C(F)(F)F)nc3-4)c2n1` [Compound 92], the IC50 came out at 25.9 nM. As to `COc1ncnc(C2CC2)c1-c1ncc2c3cn(C)nc3n(Cc3ccc(-c4nc(C(F)(F)F)c5n4CCCC5)cc3)c2n1` [Compound 120], the IC50 worked out at 1.97 nM. `COc1ncnc(C2CC2)c1-c1ncc2c3cccnc3n(Cc3ccc4c(c3)Cn3cc(C(F)(F)F)nc3-4)c2n1` [Compound 72]: the IC50 was 42.9 nM. Consider `COc1ncnc(C2CC2)c1-c1ncc2c3ccc(C#N)cc3n(Cc3ccc(-c4nc(C(F)(F)F)cn4C)cc3)c2n1` [Compound 21], for which the IC50 is 4.39 nM. On to `COc1ncnc(C2CC2)c1-c1ncc2c3ccnc(F)c3n(Cc3ccc(-c4nc(C(F)(F)F)cn4C)cc3)c2n1` [Compound 116], for which the IC50 was 6.48 nM.

Regarding `COc1ncnc(C2CC2)c1-c1ncc2c3ccc(C#N)cc3n(Cc3cc(O)c4c(c3)OCCn3cc(C(F)(F)F)nc3-4)c2n1` [Compound 77], the concentration for half-maximal inhibition (IC50) is 99.1 nM.

Take `CCP(=O)(CC)c1ccc2c3cnc(-c4c(OC)ncnc4C4CC4)nc3n(Cc3ccc4c(c3)CCCn3cc(C(F)(F)F)nc3-4)c2c1` [Compound 154]: the 50% inhibitory concentration (IC50) was found to be 6.2 nM. `COc1ncnc(C2CC2)c1-c1ncc2c3ccncc3n(Cc3ccc4n3CCCn3cc(C(F)(F)F)nc3-4)c2n1` [Compound 68]: the IC50 was 39.2 nM. Consider `COc1ncnc(C2CC2)c1-c1ncc2c3cn(C)nc3n(Cc3ccc(-c4nc(C(F)(F)F)c5n4CCC5)c(F)c3)c2n1` [Compound 143], for which the IC50 came out at 4.67 nM. `COc1ncnc(C2CC2)c1-c1ncc2c3ccncc3n(Cc3ccc(-c4nc(C(F)(F)F)cn4C)cc3)c2n1` [Compound 55]: the IC50 stood at 7.9 nM. `COc1cnn(C2CCC2)c1-c1ncc2c3ccncc3n(Cc3ccc(-c4nc(C(F)(F)F)cn4C)cc3)c2n1` [Compound 81]: the IC50 turned out to be 7.15 nM. To `COc1ncnc(C2CC2)c1-c1ncc2c3cn(C)nc3n(Cc3ccc(-c4nc(C(F)(F)F)cn4C(C)C)c(F)c3)c2n1` [Compound 107] belongs 4.65 nM; to `COc1ncnc(C2CC2)c1-c1ncc2c3cn(C)nc3n(Cc3ccc(-c4nc(C(F)(F)F)c5n4CCC5)cc3)c2n1` [Compound 114], 1.89 nM; to `COc1ncnc(C2CC2)c1-c1ncc2c3ccc(C(O)(C(F)(F)F)C(F)(F)F)cc3n(Cc3ccc(-c4nc(C(F)(F)F)cn4C)cc3)c2n1` [Compound 122], 36 nM.

`CNc1ccc2c3cnc(-c4c(OC)ncnc4C4CC4)nc3n(Cc3ccc(-c4nc(C(F)(F)F)cn4C)cc3)c2n1` [Compound 74]: the IC50 is 4.13 nM. For `COC(=O)c1ccc2c3cnc(-c4c(OC)ncnc4C4CC4)nc3n(Cc3ccc(-c4nc(C(F)(F)F)cn4C)cc3)c2c1` [Compound 42], the IC50 is 30.4 nM. With `COc1ncnc(C2CC2)c1-c1ncc2c3cn(C)nc3n(Cc3ccc(-c4nc(C(F)(F)F)cn4C)cc3)c2n1` [Compound 108], the IC50 came to 7.52 nM.
